Results taken from EP2676962A1, “Derivatives of 1-aminoalkylphosphonate diaryl esters, method of 1-aminoalkylphosphonate diaryl ester derivatives preparation and their application” (priority 2012, dated 2013).
Read-outs that look alike come from different tables or passages of the source.

Tests used:
Type in all cases: biochemical
[1] = target: T1, human neutrophil elastase (HNE) (Homo sapiens, UniProt P08246); assay: Inhibitory activity toward human neutrophil elastase, fluorogenic substrate, microplate reader
T1 sequence (P08246 30-267): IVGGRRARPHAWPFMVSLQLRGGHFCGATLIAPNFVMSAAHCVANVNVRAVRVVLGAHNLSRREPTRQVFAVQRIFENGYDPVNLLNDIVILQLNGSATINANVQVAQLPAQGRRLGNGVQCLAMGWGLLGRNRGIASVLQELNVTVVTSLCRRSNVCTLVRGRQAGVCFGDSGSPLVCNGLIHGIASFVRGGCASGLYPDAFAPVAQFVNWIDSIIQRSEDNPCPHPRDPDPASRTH
Method: (§1) The biological activity of peptidyl derivatives of phosphonic analogs of valine, alanine, phenylalanine, 4-guanidinephenylglycine, leucine, and 1-aminobutyric acid, containing the N-terminal biotin residue were tested for their ability to inhibit proteolytic activity of selected serine proteases, and the control cysteine proteases. All tests were performed using a microplate reader. As enzyme substrates fluorescent peptides were used. The method to measure the activity of the compounds obtained are described below for each of the enzymes tested: human neutrophil elastase (HNE), porcine pancreatic elastase (PPE), subtilisin (Sub), cathepsin G (CatG), proteinase 3 (PR3), chymotrypsin (ChTry) trypsin (Try), papain (Pap) and cathepsin L (CatL). Measurement of the inhibitory activity was performed at different inhibitor concentrations ranging from 12.5 nM to 2000nm.
Measurement of inhibitory activity of compounds toward human neutrophil elastase (HNE).
(§2) The inhibitory activity assay is performed at 37°C in 0,01M HEPES, 0,5M NaCl, 0,03% Triton X-100 buffer, pH 7,5, within 10 min after initial pre-incubation of the enzyme with inhibitor tested at 37°C for 10 min. The enzyme concentration is 0,0025U/ml. Substrate used Me-Suc-Ala-Ala-Pro-Val-AFC at 25µM. Measurement is taken at an excitation wavelength of 400nm and 505nm emission.
(§3) The IC50 value is the concentration of inhibitor required to inhibit half of the enzyme activity after 10 minutes incubation.

[2] = target: porcine pancreatic elastase (PPE) (Sus scrofa, UniProt P00772); assay: Inhibitory activity toward porcine pancreatic elastase, fluorogenic substrate, microplate reader; conditions: read-out: PPE IC50; 10 min pre-incubation at 37°C, pH 8,5, Me-Suc-Ala-Ala-Pro-Val-AMC 100µM; NI = brak inhibicji (no inhibition)
Method: as §1
Measurement of inhibitory activity of compounds toward porcine pancreatic elastase (PPE).
(§4) The inhibitory activity assay is performed at 37°C in 0,01M Tris-HCl, 0,05% Triton X-100 buffer, pH 8,5, within 10 min after initial pre-incubation of the enzyme with inhibitor tested at 37°C for 10 min. The enzyme concentration is 60nM. Substrate used Me-Suc-Ala-Ala-Pro-Val-AMC at 100µM. Measurement is taken at an excitation wavelength of 350nm and 460nm emission.
as §3

proteinase 3 (PR3) = target: T2, proteinase 3 (PR3) (Homo sapiens, UniProt P24158); assay: Inhibitory activity toward proteinase 3, fluorogenic substrate, microplate reader; conditions: read-out: PR3 IC50; 10 min pre-incubation at 37°C, pH 7,5, Abz-Tyr-Tyr-Abu-Anb-NH2 30µM; NI = brak inhibicji (no inhibition)
T2 sequence (P24158 28-248): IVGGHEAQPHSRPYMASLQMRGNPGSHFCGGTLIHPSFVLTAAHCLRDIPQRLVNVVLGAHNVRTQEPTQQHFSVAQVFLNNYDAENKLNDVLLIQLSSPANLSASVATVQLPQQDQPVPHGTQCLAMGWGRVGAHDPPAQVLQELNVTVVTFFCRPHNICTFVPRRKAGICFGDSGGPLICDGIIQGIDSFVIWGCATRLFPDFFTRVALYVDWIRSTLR
Method: as §1
Measurement of inhibitory activity of compounds toward proteinase 3(PR3).
(§5) The inhibitory activity assay is performed at 37°C in 0,1M Tric-HCl, 0,5M NaCl buffer, pH 7,5, within 10 min after initial pre-incubation of the enzyme with inhibitor tested at 37°C for 10 min. The enzyme concentration is 17nM. Substrate used Abz-Tyr-Tyr-Abu-Anb-NH2 at 30µM. Measurement is taken at an excitation wavelength of 325nm and 400nm emission.
as §3

cathepsin G (CatG) = target: T3, cathepsin G (CatG) (Homo sapiens, UniProt P08311); assay: Inhibitory activity toward cathepsin G, fluorogenic substrate, microplate reader
T3 sequence (P08311 21-244): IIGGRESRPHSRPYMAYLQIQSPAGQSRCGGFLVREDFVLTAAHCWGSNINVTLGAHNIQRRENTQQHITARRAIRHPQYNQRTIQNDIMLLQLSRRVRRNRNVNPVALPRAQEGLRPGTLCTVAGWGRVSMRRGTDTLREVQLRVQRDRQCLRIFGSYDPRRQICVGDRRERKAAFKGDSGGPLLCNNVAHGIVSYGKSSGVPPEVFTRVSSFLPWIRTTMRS
Method: as §1
Measurement of inhibitory activity of compounds toward cathepsin G (CatG).
as §5, with “100nM.” for “17nM.”, “MCA-Phe-Val-Thr-Gnf-Ser-Trp-Anb-NH2” for “Abz-Tyr-Tyr-Abu-Anb-NH2”, “2.5µM.” for “30µM.”
as §3

chymotrypsin (ChTry) = chymotrypsin (ChTry) (Bos taurus, UniProt P00766); assay: Inhibitory activity toward chymotrypsin, fluorogenic substrate, microplate reader; conditions: 10 min pre-incubation at 37°C, pH 7,5, Suc-Ala-Ala-Pro-Phe-AMC 5µM; NI = brak inhibicji (no inhibition)
Method: as §1
Measurement of inhibitory activity of compounds toward […] (ChyTry).
as §5, with “HEPES,” for “Tric-HCl,”, “3nM.” for “17nM.”, “Suc-Ala-Ala-Pro-Phe-AMC” for “Abz-Tyr-Tyr-Abu-Anb-NH2”, “5µM.” for “30µM.”, “350nm” for “325nm”, “460nm” for “400nm”
as §3

subtilisin (Sub) [3] = target: T4, subtilisin (Sub) (Bacillus licheniformis, UniProt P00780); assay: Inhibitory activity toward subtilisin, fluorogenic substrate, microplate reader
Method: as §1
Measurement of inhibitory activity of compounds toward subtilisin (Sub).
as §4, with “0,05M” for “0,01M”, “1M NaCl, 0,01%” for “0,05%”, “7,5,” for “8,5,”, “5nM.” for “60nM.”, “Me-Suc-Ala-Ala-Pro-Phe-AMC” for “Me-Suc-Ala-Ala-Pro-Val-AMC”, “5µM.” for “100µM.”
as §3

trypsin (Try) = target: T5, trypsin (Try) (Bos taurus, UniProt P00760); assay: Inhibitory activity toward trypsin, fluorogenic substrate, microplate reader; conditions: 10 min pre-incubation at 37°C, pH 7,5, Cbz-Arg-AFC 100µM; NI = brak inhibicji (no inhibition)
T5 sequence (P00760 24-246): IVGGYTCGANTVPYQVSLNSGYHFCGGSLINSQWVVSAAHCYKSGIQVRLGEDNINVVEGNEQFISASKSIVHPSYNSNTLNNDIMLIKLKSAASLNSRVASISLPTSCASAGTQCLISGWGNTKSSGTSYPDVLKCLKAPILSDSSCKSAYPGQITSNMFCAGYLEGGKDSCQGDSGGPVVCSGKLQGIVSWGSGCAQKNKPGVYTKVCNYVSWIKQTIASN
Method: as §1
Measurement of inhibitory activity of compounds toward trypsin (Try).
as §2, with “0,1M” for “0,01M”, “25nM.” for “0,0025U/ml.”, “Cbz-Arg-AFC” for “Me-Suc-Ala-Ala-Pro-Val-AFC”, “100µM.” for “25µM.”
as §3

subtilisin (Sub) [4] = target: T4, subtilisin (Sub); assay: Inhibitory activity toward subtilisin, fluorogenic substrate, microplate reader; conditions: 10 min, pH 7.5, read-out: Sub Kobs/[I]

T4 sequence (P00780 106-379): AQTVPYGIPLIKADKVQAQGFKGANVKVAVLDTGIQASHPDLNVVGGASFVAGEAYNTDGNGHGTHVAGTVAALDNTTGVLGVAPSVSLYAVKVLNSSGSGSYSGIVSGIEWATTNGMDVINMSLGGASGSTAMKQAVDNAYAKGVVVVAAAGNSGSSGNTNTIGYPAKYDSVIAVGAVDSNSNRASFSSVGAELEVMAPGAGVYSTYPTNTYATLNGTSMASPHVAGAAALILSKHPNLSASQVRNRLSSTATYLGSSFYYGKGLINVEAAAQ
porcine pancreatic elastase (PPE), sequence (P00772 27-266): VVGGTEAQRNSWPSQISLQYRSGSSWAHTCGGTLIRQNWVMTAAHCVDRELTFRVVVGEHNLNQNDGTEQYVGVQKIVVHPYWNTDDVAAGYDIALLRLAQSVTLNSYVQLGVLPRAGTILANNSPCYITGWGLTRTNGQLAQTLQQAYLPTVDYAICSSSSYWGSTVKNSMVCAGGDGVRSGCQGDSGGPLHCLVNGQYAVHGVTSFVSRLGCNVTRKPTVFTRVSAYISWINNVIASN

Compound	IC50 [1] [nM]	HNE Kobs/[I] ([1]; 10 min pre-incubation at 37°C, pH 7,5, Me-Suc-Ala-Ala-Pro-Val-AFC 25µM, NI = brak inhibicji (no inhibition))	IC50 [2] [nM]	IC50 (proteinase 3 (PR3)) [nM]	IC50 (cathepsin G (CatG)) [nM]	Cat G Kobs/[I] (cathepsin G (CatG); 10 min pre-incubation at 37°C, pH 7,5, MCA-Phe-Val-Thr-Gnf-Ser-Trp-Anb-NH2 2.5µM, NI = brak inhibicji (no inhibition))	ChyTr Kobs/[I] (chymotrypsin (ChTry))	IC50 (subtilisin (Sub) [3]) [nM]	Try Kobs/[I] (trypsin (Try))	IC50 ([1]; read-out: HNE IC50, 10 min pre-incubation at 37°C, pH 7,5, Me-Suc-Ala-Ala-Pro-Val-AFC 25µM, NI = brak inhibicji (no inhibition)) [nM]	IC50 (cathepsin G (CatG); read-out: Cat G IC50, 10 min pre-incubation at 37°C, pH 7,5, MCA-Phe-Val-Thr-Gnf-Ser-Trp-Anb-NH2 2.5µM, NI = brak inhibicji (no inhibition)) [nM]	kinact/KI (subtilisin (Sub) [4]) [M⁻¹ s⁻¹]
CSc1ccc(OP(=O)(Oc2ccc(SC)cc2)C(Cc2ccccc2)NC(=O)C2CCCN2C(=O)C(NC(=O)CCCCC2SCC3NC(=O)NC32)C(C)C)cc1 (stereo not drawn) [Compound 6, bis(4-(methylthio)phenyl) (1-(1-(3-methyl-2-(5-(2-oxohexahydro-1H-thieno[3,4-d]imidazol-4-yl)pentanamido)butanoyl)pyrrolidine-2-carboxamido)-2-phenylethyl)phosphonate]	1.55 ± 0.05	2.5*10^5 M^-1S^-1	> 5000	> 5000	218 ± 45	5.3*10^3 M^-1S^-1	1.0*10^5 M^-1S^-1	5.6 ± 0.8	3.7*10^2 M^-1S^-1	–	–	–
CC(C)CC(NC(=O)C1CCCN1C(=O)C(NC(=O)CCCCC1SCC2NC(=O)NC21)C(C)C)P(=O)(Oc1ccccc1)Oc1ccccc1 (stereo not drawn) [Compound 7, diphenyl (3-methyl-1-(1-(3-methyl-2-(5-(2-oxohexahydro-1H-thieno[3,4-d]imidazol-4-yl)pentanamido)butanoyl)pyrrolidine-2-carboxamido)butyl)phosphonate]	–	–	> 5000	> 5000	–	–	–	76.5 ± 1.65	–	> 5000	> 5000	15000
